What all share (format): functional, cell-based
In assay [1] the test system is MCF7. The assay is described as follows: Cytotoxicity against human MCF7 cells assessed as inhibition of cell viability incubated for 24 hrs by MTT assay. To be noted: MCF7, 24 h.
Assay [2] has as its system A549. The assay is described as follows: Cytotoxicity against human A549 cells assessed as inhibition of cell viability incubated for 24 hrs by MTT assay. To be noted: A549, 24 h. (In general: Formazan colour is commonly taken as a measure of viable cells.)
Assay [3] has as its system HCT-116. The assay is described as follows: Cytotoxicity against human HCT-116 cells assessed as inhibition of cell viability incubated for 24 hrs by MTT assay. To be noted: HCT-116, 24 h.

Molecules are shown by their SMILES. A value given as a limit tells only on which side of the number the result lay.

This is an account of results in ChEMBL document CHEMBL6103641, “Palladium-Catalyzed Late-Stage Functionalization of Natural Antitumor Drug: Synthesis and Bioactivity of 5-Aryl Camptothecins” (J Nat Prod, 2025).

For orientation: IC50 means the concentration needed to halve the response being measured. As for `CC[C@@]1(O)C(=O)OCc2c1cc1n(c2=O)[C@@H](c2cccc(F)c2C)c2cc3ccccc3nc2-1`, the figures for the half-inhibitory concentration (IC50) in assay [1], in assay [2] and in assay [3] were greater than 10 µM, 0.01 µM and 0.9 µM, respectively.
As for `CC[C@@]1(O)C(=O)OCc2c1cc1n(c2=O)[C@H](CC=C(C)C)c2cc3ccccc3nc2-1`, the concentration for half-maximal inhibition (IC50) is 0.1 µM in assay [1], 1.2 µM in assay [2] and 0.6 µM in assay [3].
For `CCOc1ccc([C@@H]2c3cc4ccccc4nc3-c3cc4c(c(=O)n32)COC(=O)[C@]4(O)CC)cc1`, in that order: greater than 10 µM, 0.1 µM and greater than 10 µM.
In the case of `C=Cc1ccc([C@@H]2c3cc4ccccc4nc3-c3cc4c(c(=O)n32)COC(=O)[C@]4(O)CC)cc1`, the IC50 in assay [1] was 0.1 µM; in assay [2], greater than 10 µM; in assay [3], 0.9 µM.
On to `CC[C@@]1(O)C(=O)OCc2c1cc1n(c2=O)[C@@H](c2ccc(Cl)cc2)c2cc3ccccc3nc2-1`, for which the half-inhibitory concentration (IC50) in assay [1], in assay [2] and in assay [3] was greater than 10 µM in each case.
With `CC[C@@]1(O)C(=O)OCc2c1cc1n(c2=O)[C@H](c2ccccc2C)c2cc3ccccc3nc2-1`, the results for the IC50 in assay [1], in assay [2] and in assay [3] were greater than 10 µM, greater than 10 µM and 0.2 µM, respectively.
As for `CC[C@@]1(O)C(=O)OCc2c1cc1n(c2=O)[C@H](c2ccccc2F)c2cc3ccccc3nc2-1`, the figures for the IC50 in assay [1], in assay [2] and in assay [3] were greater than 10 µM, 0.01 µM and 0.5 µM, respectively.
Take `CC[C@@]1(O)C(=O)OCc2c1cc1n(c2=O)[C@@H](c2cccc(C(F)(F)F)c2)c2cc3ccccc3nc2-1`: the IC50 in assay [1], in assay [2] and in assay [3] was greater than 10 µM each time.
For the compound `CC[C@@]1(O)C(=O)OCc2c1cc1n(c2=O)[C@@H](c2c(C)cccc2C)c2cc3ccccc3nc2-1`, the 50% inhibitory concentration (IC50) was greater than 10 µM in assay [1], greater than 10 µM in assay [2] and 1.1 µM in assay [3].
Turning to `CC[C@@]1(O)C(=O)OCc2c1cc1n(c2=O)[C@@H](c2cc(C)cc(C)c2)c2cc3ccccc3nc2-1`, the IC50 in assay [1] was 0.16 µM; in assay [2] it was greater than 10 µM; in assay [3] it was greater than 10 µM.
Turning to `CC[C@@]1(O)C(=O)OCc2c1cc1n(c2=O)[C@H](c2ccc(C(C)(C)C)cc2)c2cc3ccccc3nc2-1`, the concentration for half-maximal inhibition (IC50) in assay [1] was greater than 10 µM; in assay [2] it was greater than 10 µM; in assay [3], 0.2 µM.
In the case of `C=CC[C@H]1c2cc3ccccc3nc2-c2cc3c(c(=O)n21)COC(=O)[C@]3(O)CC`, the IC50 is greater than 10 µM in assay [1], greater than 10 µM in assay [2] and 0.4 µM in assay [3].
For `CC[C@@]1(O)C(=O)OCc2c1cc1n(c2=O)[C@H](c2c(OC)cccc2OC)c2cc3ccccc3nc2-1`, the IC50 in assay [1] is 0.4 µM; in assay [2], greater than 10 µM; in assay [3] it was greater than 10 µM.
`C=Cc1ccc([C@H]2c3cc4ccccc4nc3-c3cc4c(c(=O)n32)COC(=O)[C@]4(O)CC)cc1`: the results for the IC50 in assay [1], in assay [2] and in assay [3] were 0.6 µM, greater than 10 µM and 0.8 µM, respectively.
Consider `CC[C@@]1(O)C(=O)OCc2c1cc1n(c2=O)[C@@H](c2ccc3c(c2)OCO3)c2cc3ccccc3nc2-1`, for which the figures for the concentration for half-maximal inhibition (IC50) in assay [1], in assay [2] and in assay [3] were greater than 10 µM, 0.5 µM and greater than 10 µM, respectively.
Regarding `CC[C@@]1(O)C(=O)OCc2c1cc1n(c2=O)[C@@H](c2ccc(F)cc2)c2cc3ccccc3nc2-1`, the half-inhibitory concentration (IC50) in assay [1] was 0.1 µM; in assay [2] it was greater than 10 µM; in assay [3], greater than 10 µM.
With `CC[C@@]1(O)C(=O)OCc2c1cc1n(c2=O)[C@@H](c2ccccc2Cl)c2cc3ccccc3nc2-1`, the IC50 is 0.1 µM in assay [1], greater than 10 µM in assay [2] and greater than 10 µM in assay [3].
For `CC[C@@]1(O)C(=O)OCc2c1cc1n(c2=O)[C@@H](c2ccc(-c3cccc4ccccc34)cc2)c2cc3ccccc3nc2-1`, the IC50 in assay [1], in assay [2] and in assay [3] was greater than 10 µM each time.
For the compound `CCc1ccc(-c2ccc([C@@H]3c4cc5ccccc5nc4-c4cc5c(c(=O)n43)COC(=O)[C@]5(O)CC)cc2)cc1`, the IC50 in assay [1] was greater than 10 µM; in assay [2], 0.8 µM; in assay [3], 0.2 µM.
In the case of `CC[C@@]1(O)C(=O)OCc2c1cc1n(c2=O)[C@H](c2ccc(-c3cccc4ccccc34)cc2)c2cc3ccccc3nc2-1`, the 50% inhibitory concentration (IC50) is 1.1 µM in assay [1], greater than 10 µM in assay [2] and 0.7 µM in assay [3].
For `CC[C@@]1(O)C(=O)OCc2c1cc1n(c2=O)[C@H](c2ccc3c(c2)OCO3)c2cc3ccccc3nc2-1`, in that order: greater than 10 µM, 0.1 µM and 0.05 µM.
In the case of `CCOc1ccc([C@H]2c3cc4ccccc4nc3-c3cc4c(c(=O)n32)COC(=O)[C@]4(O)CC)cc1`, the IC50 in assay [1] is greater than 10 µM; in assay [2] it was 0.1 µM; in assay [3] it was greater than 10 µM.
As to `CC[C@@]1(O)C(=O)OCc2c1cc1n(c2=O)[C@H](c2cccc(CBr)c2)c2cc3ccccc3nc2-1`, the IC50 in assay [1] is greater than 10 µM; in assay [2], 1.1 µM; in assay [3], 9.3 µM.
`CC[C@@]1(O)C(=O)OCc2c1cc1n(c2=O)[C@H](c2cccc(OC)c2)c2cc3ccccc3nc2-1`: the IC50 in assay [1] is greater than 10 µM; in assay [2], 0.2 µM; in assay [3], greater than 10 µM.
For the compound `CC[C@@]1(O)C(=O)OCc2c1cc1n(c2=O)[C@@H](c2ccccc2C)c2cc3ccccc3nc2-1`, the concentration for half-maximal inhibition (IC50) in assay [1] is greater than 10 µM; in assay [2] it was greater than 10 µM; in assay [3], 0.2 µM.
With `CC[C@@]1(O)C(=O)OCc2c1cc1n(c2=O)[C@@H](c2ccccc2F)c2cc3ccccc3nc2-1`, the IC50 in assay [1] is greater than 10 µM; in assay [2], 0.04 µM; in assay [3], greater than 10 µM.
Turning to `CC[C@@]1(O)C(=O)OCc2c1cc1n(c2=O)[C@H](c2cccc(-c3ccccc3)c2)c2cc3ccccc3nc2-1`, the IC50 in assay [1] was greater than 10 µM; in assay [2], 0.9 µM; in assay [3], greater than 10 µM.
Take `CC[C@@]1(O)C(=O)OCc2c1cc1n(c2=O)[C@H](c2ccccc2Cl)c2cc3ccccc3nc2-1`: the IC50 in assay [1] is 0.6 µM; in assay [2], greater than 10 µM; in assay [3] it was greater than 10 µM.
On to `CC[C@@]1(O)C(=O)OCc2c1cc1n(c2=O)[C@H](c2ccc(F)cc2)c2cc3ccccc3nc2-1`, for which the 50% inhibitory concentration (IC50) in assay [1] was 0.1 µM; in assay [2], 0.4 µM; in assay [3], greater than 10 µM.
On to `C=CC[C@@H]1c2cc3ccccc3nc2-c2cc3c(c(=O)n21)COC(=O)[C@]3(O)CC`, for which the IC50 in assay [1] was 0.9 µM; in assay [2], greater than 10 µM; in assay [3] it was 0.3 µM.
Consider `CCOC(=O)/C=C/C[C@@H]1c2cc3ccccc3nc2-c2cc3c(c(=O)n21)COC(=O)[C@]3(O)CC`, for which the IC50 was 0.4 µM in assay [1], 0.01 µM in assay [2] and 0.3 µM in assay [3].
With `CC[C@@]1(O)C(=O)OCc2c1cc1n(c2=O)[C@H](c2cccc(F)c2C)c2cc3ccccc3nc2-1`, the results for the IC50 in assay [1], in assay [2] and in assay [3] were greater than 10 µM, 0.01 µM and 10.4 µM, respectively.
Turning to `CC[C@@]1(O)C(=O)OCc2c1cc1n(c2=O)[C@@H](c2ccccc2C(C)C)c2cc3ccccc3nc2-1`, the IC50 was greater than 10 µM in assay [1], 0.01 µM in assay [2] and 0.6 µM in assay [3].
In the case of `CC[C@@]1(O)C(=O)OCc2c1cc1n(c2=O)[C@H](c2ccc(Cl)cc2)c2cc3ccccc3nc2-1`, the IC50 in assay [1] is greater than 10 µM; in assay [2] it was greater than 10 µM; in assay [3], 0.6 µM.
As to `CC[C@@]1(O)C(=O)OCc2c1cc1n(c2=O)[C@H](c2cccc(C(F)(F)F)c2)c2cc3ccccc3nc2-1`, the IC50 in assay [1] was 0.07 µM; in assay [2], greater than 10 µM; in assay [3], 1.2 µM.
On to `CC[C@@]1(O)C(=O)OCc2c1cc1n(c2=O)[C@@H](CC=C(C)C)c2cc3ccccc3nc2-1`, for which the IC50 in assay [1] turned out to be 0.06 µM; in assay [2] it was 0.02 µM; in assay [3], 0.5 µM.
Take `CC[C@@]1(O)C(=O)OCc2c1cc1n(c2=O)[C@H](c2c(C)cccc2C)c2cc3ccccc3nc2-1`: the half-inhibitory concentration (IC50) was greater than 10 µM in assay [1], greater than 10 µM in assay [2] and 0.3 µM in assay [3].
Regarding `CCOC(=O)/C=C/C[C@H]1c2cc3ccccc3nc2-c2cc3c(c(=O)n21)COC(=O)[C@]3(O)CC`, the concentration for half-maximal inhibition (IC50) in assay [1] is greater than 10 µM; in assay [2], 0.01 µM; in assay [3] it was 0.4 µM.
Consider `CC[C@@]1(O)C(=O)OCc2c1cc1n(c2=O)[C@H](c2ccc3c(c2)OCCO3)c2cc3ccccc3nc2-1`, for which the half-inhibitory concentration (IC50) was greater than 10 µM in assay [1], 0.1 µM in assay [2] and 0.08 µM in assay [3].
For `CC[C@@]1(O)C(=O)OCc2c1cc1n(c2=O)[C@H](c2ccccc2C(C)C)c2cc3ccccc3nc2-1`, the 50% inhibitory concentration (IC50) in assay [1] was determined as 9.2 µM; in assay [2], 0.01 µM; in assay [3], 0.1 µM.
Take `CC[C@@]1(O)C(=O)OCc2c1cc1n(c2=O)[C@@H](c2cccc(-c3ccccc3)c2)c2cc3ccccc3nc2-1`: the figures for the IC50 in assay [1], in assay [2] and in assay [3] were greater than 10 µM, 8.9 µM and greater than 10 µM, respectively.
For the compound `CC[C@@]1(O)C(=O)OCc2c1cc1n(c2=O)[C@H](c2ccc3ccccc3c2)c2cc3ccccc3nc2-1`, the IC50 in assay [1] was greater than 10 µM; in assay [2], 0.7 µM; in assay [3] it was greater than 10 µM.
Regarding `CC[C@@]1(O)C(=O)OCc2c1cc1n(c2=O)[C@@H](c2cccc(OC)c2)c2cc3ccccc3nc2-1`, the concentration for half-maximal inhibition (IC50) is greater than 10 µM in assay [1], 1.1 µM in assay [2] and greater than 10 µM in assay [3].
In the case of `CC[C@@]1(O)C(=O)OCc2c1cc1n(c2=O)Cc2cc3ccccc3nc2-1` [CAMPTOTHECIN], the values for the IC50 in assay [1], in assay [2] and in assay [3] were 0.9 µM, 0.3 µM and 0.3 µM, respectively.
